The text below walks through data of ChEMBL document CHEMBL1201862, “PubChem BioAssay data set” (2004).

Some test systems named below: KM12; TK-10; SK-OV-3; PC-3; UO-31; SNB-75; IGROV-1; SK-MEL-28; LOX IMVI; K562; HOP-62; SNB-19; NCI-H522; T47D; Hs-578T; MDA-MB-231; M14; SN12C; MOLT-4; 786-0.
Common to all, as to experiment: NCI tumour cell line growth inhibition, 48 h

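How tested: cells in 96-well plates exposed to compound for 48 hours at five concentrations. At the GI50, growth is halved.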 The source made the active and inactive calls. No stated cut-off is given here; in the data, active = GI50 up to about 1.1 µM and inactive = higher.

As for `COc1ccc(COCC[C@H](C)OC2OC(CO)C(O)C(O)C2O)cc1` (stereo not given in full), the GI50 in the test with KM12, in the test on TK-10, in the test with SK-OV-3, in the test on PC-3, in the test on UO-31 and in the test on SNB-75 was > 100 µM (inactive) throughout. Moreover, the GI50 in the test with IGROV-1, in the test on SK-MEL-28, in the test with LOX IMVI, with K562, with HOP-62 and with SNB-19 was > 100 µM (inactive) in each case. The GI50 in the test with NCI-H522, with T47D, in the test on Hs-578T, in the test on MDA-MB-231, in the test on M14 and with SN12C was > 100 µM (inactive) throughout. For the same compound, the GI50 with MOLT-4 and with 786-0 was > 100 µM (inactive) throughout.
`O=C(/C=C\Nc1ccccc1O)C(F)(F)F`: the GI50 is > 100 µM (inactive) in the test on KM12; > 100 µM (inactive) in the test on TK-10; 49.1 µM (inactive) in the test on SK-OV-3; 37.3 µM (inactive) with PC-3; 27.7 µM (inactive) in the test with UO-31; > 100 µM (inactive) in the test on SNB-75. The GI50 was 78.9 µM (inactive) with IGROV-1; > 100 µM (inactive) in the test with SK-MEL-28; 95.3 µM (inactive) in the test on LOX IMVI; 38.5 µM (inactive) in the test on K562; 30.6 µM (inactive) in the test with HOP-62; > 100 µM (inactive) with SNB-19. Besides, the GI50 with NCI-H522 was 31 µM (inactive); in the test with T47D it was 39 µM (inactive); in the test on Hs-578T, > 100 µM (inactive); with MDA-MB-231 it was > 100 µM (inactive); in the test on M14, 40.3 µM (inactive); with SN12C, 54.8 µM (inactive). Besides, the GI50 in the test with MOLT-4 is 31.7 µM (inactive); in the test on 786-0, 35.1 µM (inactive).
For the compound `CC(=O)OC12CC(C)C3(O)C4C=C(C)C(=O)[C@@]4(O)CC(CO)=C[C@H]3C1C2(C)C` (stereo not given in full), the GI50 is > 10 µM (inactive) with KM12; 2.34 µM (inactive) with TK-10; 794 µM (inactive) in the test with SK-OV-3; > 1000 µM (inactive) in the test on PC-3; > 10 µM (inactive) with UO-31; > 10 µM (inactive) in the test on SNB-75. For the same compound, the GI50 in the test with IGROV-1 was > 10 µM (inactive); with SK-MEL-28, > 10 µM (inactive); in the test on LOX IMVI, > 10 µM (inactive); with K562, 0.494 µM (active); in the test on HOP-62, > 100 µM (inactive); in the test on SNB-19 it was > 10 µM (inactive). Besides, the GI50 is > 10 µM (inactive) in the test on NCI-H522; > 100 µM (inactive) in the test with T47D; 0.82 µM (active) with Hs-578T; > 10 µM (inactive) in the test on MDA-MB-231; > 10 µM (inactive) with M14; > 100 µM (inactive) with SN12C. In addition, the GI50 with MOLT-4 is > 1000 µM (inactive); in the test with 786-0, > 10 µM (inactive).
`COc1cc(OC)c2c(c1-c1ccc(C)cc1)CC(C)N(Cc1ccccc1)[C@H]2C` (stereo not given in full): the GI50 in the test with KM12 was 28.2 µM (inactive); in the test with TK-10, 38.3 µM (inactive); with SK-OV-3 it was 31.8 µM (inactive); in the test on PC-3, 36.1 µM (inactive); in the test with UO-31, 47.9 µM (inactive); in the test on SNB-75, 6.9 µM (inactive). Besides, the GI50 was 80.4 µM (inactive) in the test on IGROV-1; 38.2 µM (inactive) in the test on SK-MEL-28; 36.2 µM (inactive) in the test with LOX IMVI; 22.1 µM (inactive) in the test with K562; 59 µM (inactive) in the test on HOP-62; 67.9 µM (inactive) in the test on SNB-19. Moreover, the GI50 in the test with NCI-H522 was 33.5 µM (inactive); with T47D it was 23.8 µM (inactive); in the test with Hs-578T, 12.7 µM (inactive); in the test with MDA-MB-231 it was 51.3 µM (inactive); in the test with M14 it was 43.2 µM (inactive); in the test with SN12C, 35.9 µM (inactive). Moreover, the figures for the GI50 with MOLT-4 and in the test on 786-0 were 23.6 µM (inactive) and 33.7 µM (inactive), respectively.
